Here are results for six compounds from patent US20240381871A1, “5-HALOALKOXY-PYRIMIDINE COMPOUNDS AS HERBICIDES” (SYNGENTA CROP PROTECTION AG, priority 2020, published 2024).

Holding throughout (format): in vivo
Assay [1] relates to Ipomea hederacea (IPOHE). The assay can be described thus: Comparative post-emergence test, weed control. The following applies: Ipomoea hederacea, 336 h, after 14 days, read-out: IPOHE damage (100=total damage to plant; 0=no damage). On the procedure:
(§1) Seeds of test species were sown in standard soil in pots. After cultivation for 10 days (post-emergence) under controlled conditions in a glasshouse (at 24/16° C., day/night; 14 hours light; 65% humidity), the plants were sprayed with an aqueous spray solution derived from the formulation of the technical active ingredient in 0.6 ml acetone and 45 ml formulation solution containing 10.6% Emulsogen EL (Registry number 61791-12-6), 42.2% N-methyl pyrrolidone, 42.2% dipropylene glycol monomethyl ether (CAS RN 34590-94-8) and 0.2% X-77 (CAS RN 11097-66-8). The test plants were then grown in a glasshouse under controlled conditions in a glasshouse (at 24/16° C., day/night; 14 hours light; 65% humidity) and watered twice daily. After 14 days, the test was evaluated (100=total damage to plant; 0=no damage to plant). • Weeds: Ipomea hederacea (IPOHE) • Crops: Zea mays (ZEAMX)

Assay [2] has as its system Ipomoea hederacea (IPOHE). The assay can be described thus: Post-emergence herbicidal glasshouse test. The following applies: rate 250, evaluated after 13 days, the values are: phytotoxicity score (1-5 scale). As to the method:
(§2) Seeds of a variety of test species are sown in standard soil in pots, Amaranthus retoflexus (AMARE), Abutilon theophrasti (ABUTH), Setaria faberi (SETFA), Echinochloa crus-galli (ECHCG) and Ipomoea hederacea (IPOHE). After cultivation for one day (pre-emergence) or after 8 days cultivation (post-emergence) under controlled conditions in a glasshouse (at 24/16° C., day/night; 14 hours light; 65% humidity), the plants are sprayed with an aqueous spray solution derived from the formulation of the technical active ingredient in acetone/water (50:50) solution containing 0.5% Tween 20 (polyoxyethelyene sorbitan monolaurate, CAS RN 9005-64-5). Compounds are applied at 1000 g/ha unless otherwise stated. The test plants are then grown in a glasshouse under controlled conditions in a glasshouse (at 24/16° C., day/night; 14 hours light; 65% humidity) and watered twice daily. After 13 days for pre and post-emergence, the test is evaluated for the percentage damage caused to the plant.

The test system of assay [3] is Echinochloa crus-galli (ECHCG). The assay can be described thus: Post-emergence herbicidal glasshouse test. The conditions noted are these: rate 250, evaluated after 13 days, the values are: phytotoxicity score (1-5 scale). On the procedure:
as §2

The test system of assay [4] is Setaria faberi (SETFA). The assay can be described thus: Post-emergence herbicidal glasshouse test. The following applies: rate 250, evaluated after 13 days, the values are:
On the procedure:
as §2

The subject of assay [5] is Amaranthus retoflexus (AMARE). The assay can be described thus: Post-emergence herbicidal glasshouse test. The conditions noted are these: rate 250, evaluated after 13 days, the values are: phytotoxicity score (1-5 scale). On the procedure: as §2
The test system of assay [6] is Abutilon theophrasti (ABUTH). The assay can be described thus: Post-emergence herbicidal glasshouse test. The following applies: rate 250, evaluated after 13 days, the values are:
As to the method: as §2

In assay [7] the test system is Zea mays (ZEAMX). Briefly: Comparative post-emergence test, crop damage. The conditions noted are these: 336 h, after 14 days, read-out: ZEAMX damage (100=total damage to plant; 0=no damage). On the procedure: as §1
For assay [8], the system named is Ipomoea hederacea (IPOHE). The assay can be described thus: Pre-emergence herbicidal glasshouse test. The conditions noted are these: rate 250, evaluated after 13 days, the values are:
On the procedure:
as §2

Assay [9] has as its system Echinochloa crus-galli (ECHCG). Briefly: Pre-emergence herbicidal glasshouse test. The following applies: rate 250, evaluated after 13 days, the values are: phytotoxicity score (1-5). As to the method: as §2
The subject of assay [10] is Setaria faberi (SETFA). The assay can be described thus: Pre-emergence herbicidal glasshouse test. The conditions noted are these: rate 250, evaluated after 13 days, the values are: phytotoxicity score (1-5). On the procedure:
as §2

Assay [11] has as its system Amaranthus retoflexus (AMARE). The assay can be described thus: Pre-emergence herbicidal glasshouse test. The conditions noted are these: rate 250, evaluated after 13 days, the values are:
As to the method:
as §2

For assay [12], the system named is Abutilon theophrasti (ABUTH). Briefly: Pre-emergence herbicidal glasshouse test. The following applies: rate 250, evaluated after 13 days, the values are:
As to the method:
as §2

With `FC(F)Oc1cnc(Oc2ccccc2-c2cc(C(F)F)no2)nc1` [Compound 1.003], in [1], the pest or weed control at 2 g/ha was 10%, the pest or weed control at 8 g/ha turned out to be 20%, the pest or weed control at 60 g/ha was 30% and the pest or weed control at 125 g/ha came to 70%. Further, in [1], the pest or weed control at 250 g/ha stood at 70% and the pest or weed control at 500 g/ha stood at 90%. Besides, in assay [2], the Post-emergence activity IPOHE (% phytotoxicity) came to 4. Further, the Post-emergence activity ECHCG (% phytotoxicity) in assay [3] came out at 3. Besides, in assay [4], the Post-emergence activity SETFA (% phytotoxicity) turned out to be 3. Further, in assay [5], the Post-emergence activity AMARE (% phytotoxicity) is 4. In assay [6], this compound gave a Post-emergence activity ABUTH (% phytotoxicity) of 4. Moreover, in [7], the plant injury at 2 g/ha stood at 0%, the plant injury at 8 g/ha worked out at 0%, the plant injury at 60 g/ha turned out to be 0% and the plant injury at 125 g/ha is 0%. Besides, in assay [7], the plant injury at 250 g/ha was 0% and the plant injury at 500 g/ha stood at 10%. This compound returned a Pre-emergence activity IPOHE (% phytotoxicity) in assay [8] of 3. In assay [9], this compound displayed a Pre-emergence activity ECHCG (% phytotoxicity) of 2. In addition, in [10], the Pre-emergence activity SETFA (% phytotoxicity) was 4. In addition, the Pre-emergence activity AMARE (% phytotoxicity) in assay [11] was found to be 5. In [12], this compound came in with a Pre-emergence activity ABUTH (% phytotoxicity) of 4.

Regarding `FC(F)Oc1cnc(Oc2cccc(Cl)c2-c2cc(C(F)F)no2)nc1` [Compound 1.004], in assay [1], the pest or weed control at 2 g/ha is 20%, the pest or weed control at 8 g/ha was found to be 50%, the pest or weed control at 60 g/ha came to 70% and the pest or weed control at 125 g/ha came out at 70%. In [1], the pest or weed control at 250 g/ha was found to be 90% and the pest or weed control at 500 g/ha stood at 90%. Further, the Post-emergence activity IPOHE (% phytotoxicity) in assay [2] worked out at 4. In [3], this compound came in with a Post-emergence activity ECHCG (% phytotoxicity) of 4. The compound also returned a Post-emergence activity SETFA (% phytotoxicity) in assay [4] of 4. Moreover, in [5], the Post-emergence activity AMARE (% phytotoxicity) is 4. In assay [6], this compound registered a Post-emergence activity ABUTH (% phytotoxicity) of 4. In addition, in [7], the plant injury at 2 g/ha was 0%, the plant injury at 8 g/ha is 0%, the plant injury at 60 g/ha came to 0% and the plant injury at 125 g/ha worked out at 10%. Also, in assay [7], the plant injury at 250 g/ha was determined as 20% and the plant injury at 500 g/ha came out at 40%. The Pre-emergence activity IPOHE (% phytotoxicity) in assay [8] was 5. Also, the Pre-emergence activity ECHCG (% phytotoxicity) in assay [9] stood at 4. This compound gave a Pre-emergence activity SETFA (% phytotoxicity) in assay [10] of 5. For the same compound, the Pre-emergence activity AMARE (% phytotoxicity) in [11] turned out to be 5. Moreover, the Pre-emergence activity ABUTH (% phytotoxicity) in [12] is 4.

With `FC(F)Oc1cnc(Oc2cccc(Br)c2-c2cc(C(F)F)no2)nc1` [Compound 1.005], in assay [1], the pest or weed control at 2 g/ha was 30%, the pest or weed control at 8 g/ha came out at 20%, the pest or weed control at 60 g/ha amounted to 40% and the pest or weed control at 125 g/ha worked out at 70%. Further, in [1], the pest or weed control at 250 g/ha turned out to be 90% and the pest or weed control at 500 g/ha worked out at 80%. For the same compound, in assay [2], the Post-emergence activity IPOHE (% phytotoxicity) came to 5. The compound further returned a Post-emergence activity ECHCG (% phytotoxicity) in [3] of 3. The compound further gave a Post-emergence activity SETFA (% phytotoxicity) in [4] of 4. Besides, the Post-emergence activity AMARE (% phytotoxicity) in assay [5] was 4. In [6], this compound gave a Post-emergence activity ABUTH (% phytotoxicity) of 4. In addition, in [7], the plant injury at 60 g/ha was found to be 10%, the plant injury at 125 g/ha turned out to be 20%, the plant injury at 250 g/ha turned out to be 30% and the plant injury at 500 g/ha was determined as 30%. This compound also registered a Pre-emergence activity IPOHE (% phytotoxicity) in assay [8] of 4. In addition, in [9], the Pre-emergence activity ECHCG (% phytotoxicity) came to 3. This compound also displayed a Pre-emergence activity SETFA (% phytotoxicity) in assay [10] of 5. For the same compound, the Pre-emergence activity AMARE (% phytotoxicity) in [11] was 5. The same compound yielded a Pre-emergence activity ABUTH (% phytotoxicity) in assay [12] of 3.

Compound `N#Cc1cccc(Oc2ncc(OC(F)F)cn2)c1CCCC(F)(F)F` [Compound 1.025] returned a Post-emergence activity IPOHE (% phytotoxicity) in assay [2] of 1. In assay [3], this compound returned a Post-emergence activity ECHCG (% phytotoxicity) of 1. In assay [4], this compound came in with a Post-emergence activity SETFA (% phytotoxicity) of 1. Besides, the Post-emergence activity AMARE (% phytotoxicity) in assay [5] is 2. This compound registered a Post-emergence activity ABUTH (% phytotoxicity) in assay [6] of 1. Moreover, in [8], the Pre-emergence activity IPOHE (% phytotoxicity) was determined as 1. Besides, the Pre-emergence activity ECHCG (% phytotoxicity) in assay [9] turned out to be 1. The Pre-emergence activity SETFA (% phytotoxicity) in [10] is 1. Besides, the Pre-emergence activity AMARE (% phytotoxicity) in [11] came out at 1. In assay [12], this compound returned a Pre-emergence activity ABUTH (% phytotoxicity) of 1.

In assay [2], `O=C(CCC(F)(F)F)c1c(Cl)cccc1Oc1ncc(OC(F)F)cn1` [Compound 1.027, 1-[2-chloro-6-[5-(difluoromethoxy)pyrimidin-2-yl]oxy-phenyl]-4,4,4-trifluoro-butan-1-one] displayed a Post-emergence activity IPOHE (% phytotoxicity) of 3. Moreover, the Post-emergence activity ECHCG (% phytotoxicity) in assay [3] turned out to be 1. Moreover, the Post-emergence activity SETFA (% phytotoxicity) in assay [4] stood at 1. The Post-emergence activity AMARE (% phytotoxicity) in [5] is 4. For the same compound, in assay [6], the Post-emergence activity ABUTH (% phytotoxicity) was determined as 3. In assay [8], the Pre-emergence activity IPOHE (% phytotoxicity) worked out at 1. The compound also displayed a Pre-emergence activity ECHCG (% phytotoxicity) in [9] of 2. In assay [10], this compound gave a Pre-emergence activity SETFA (% phytotoxicity) of 4. Besides, the Pre-emergence activity AMARE (% phytotoxicity) in [11] worked out at 4. The same compound returned a Pre-emergence activity ABUTH (% phytotoxicity) in assay [12] of 3.

Consider `O=C(CCC(F)(F)F)c1c(Br)cccc1Oc1ncc(OC(F)F)cn1` [Compound 1.028], for which the Post-emergence activity IPOHE (% phytotoxicity) in assay [2] amounted to 2. Moreover, the Post-emergence activity ECHCG (% phytotoxicity) in [3] came out at 1. This compound also registered a Post-emergence activity SETFA (% phytotoxicity) in assay [4] of 1. This compound registered a Post-emergence activity AMARE (% phytotoxicity) in [5] of 5. In assay [6], this compound showed a Post-emergence activity ABUTH (% phytotoxicity) of 2. The same compound displayed a Pre-emergence activity IPOHE (% phytotoxicity) in assay [8] of 1. The compound further registered a Pre-emergence activity ECHCG (% phytotoxicity) in [9] of 1. The Pre-emergence activity SETFA (% phytotoxicity) in assay [10] came out at 5. The compound also had a Pre-emergence activity AMARE (% phytotoxicity) in assay [11] of 5. Further, the Pre-emergence activity ABUTH (% phytotoxicity) in assay [12] was 2.
